Results taken from patent US12053473B2, “Benzylamino substituted quinazolines and derivatives as SOS1 inhibitors” (priority 2016, dated 2024).

These compounds were tested against SOS1 and KRAS G12D (protein-protein interaction) (Homo sapiens, UniProt Q07889) (assay: KRAS::SOS1 AlphaScreen binding assay). Conditions: not given.
Method: KRAS::SOS1 AlphaScreen Binding Assay
Low IC50 values are indicative of high potency of the SOS1 inhibitor compound in this assay setting:
10 nM (final assay concentration) KRAS G12D, 10 μM (final assay concentration) GDP and 5 nM (final assay concentration) GST-SOS1 are mixed in assay buffer prior to use and kept at room temperature.
AlphaLSA Glutathione Acceptor Beads and AlphaScreen Streptavidin Donor Beads are mixed in assay buffer at a concentration of 10 μg/mL (final assay concentration) each prior to use and kept at room temperature.
Compounds are diluted to a final start concentration of 100 μM and are tested in duplicate. […] For compound a start concentration of 100 μM, 150 nL of compound solution is transferred per well in 11 concentrations in duplicate with serial 1:5 dilutions.
The assay is run using a fully automated robotic system in a darkened room below 100 Lux. 10 μL of KRAS::SOS1 GDP mix is added into columns 1-24 to the 150 nL of compound solution (final dilution in the assay 1:100, final DMSO concentration 1%).
After a 30 minute incubation time 5 μL of bead mix is added into columns 1-23. Plates are kept at room temperature in a darkened incubator. After a further 60 minute incubation, the signal is measured using a PerkinElmer Envision HTS Multilabel Reader using the AlphaScreen specifications from PerkinElmer. Each plate contains the following controls: • diluted DMSO+KRAS::SOS1 GDP mix+bead mix • diluted DMSO+KRAS::SOS1 GDP mix Result Calculation:
IC50 values are calculated and analyzed using a 4 parametric logistic model.
`Cc1nc(N[C@H](C)c2cccc(C(F)(F)F)c2)c2cc([C@]3(O)CC[C@H](O)CC3)cc(C)c2n1` [I-55] was tested, and the IC50 was 20 nM.
`COc1cc2nc(C)nc(N[C@H](C)c3cccc(C(F)(F)F)c3)c2cc1[C@]1(O)CC[C@@H](O)CC1` [I-57] was tested, and the IC50 was 10 nM.
With `COc1cc2nc(C)nc(N[C@H](C)c3cccc(C(F)(F)F)c3F)c2cc1[C@]1(O)CC[C@@H](O)CC1` [I-58] the IC50 was 6 nM.
In the case of `Cc1nc(N[C@H](C)c2cccc(C(F)(F)F)c2)c2cc([C@]3(O)CC[C@H](O)CC3)ccc2n1` [I-59], the IC50 is reported as 20 nM.
For `Cc1nc(N[C@H](C)c2cccc(C(F)(F)F)c2)c2cc([C@]3(O)CC[C@@H](O)CC3)ccc2n1` [I-60], the IC50 was 10 nM.
For `Cc1nc(N[C@H](C)c2cccc(C(F)(F)F)c2F)c2cc([C@]3(O)CC[C@@H](O)CC3)ccc2n1` [I-61], the IC50 was 8 nM.
In the case of `COc1cc2nc(C)nc(N[C@H](C)c3cccc(C(F)(F)F)c3)c2cc1[C@]1(O)CC[C@@H](C(=O)N(C)CCO)CC1` [I-75], the IC50 is reported as 7 nM.

Same assay, conditions: assay buffer with 100 μM EDTA (values marked with an asterisk); read-out: IC50 (SOS1)
With `COc1cc2nc(C)nc(N[C@H](C)c3cccc(S(C)(=O)=O)c3)c2cc1O[C@H]1CCOC1` [I-3] the IC50 was 47 nM.
Work on `Cc1cccc([C@@H](C)Nc2nc(C)nc3ccc([C@H]4CC[C@H](O)CC4)cc23)c1` [I-64] yielded an IC50 of 34 nM.
For `Cc1cccc([C@@H](C)Nc2nc(C)nc3ccc(C4CC[S+]([O-])CC4)cc23)c1` (stereo partly drawn) [I-160], the IC50 was 22 nM.
For `Cc1cccc([C@@H](C)Nc2nc(C)nc3ccc(C4CCS(=O)(=O)CC4)cc23)c1` [I-161], the IC50 was 29 nM.

Same assay, conditions: assay buffer without EDTA (values not marked with an asterisk); read-out: IC50 (SOS1)
With `COc1cc2nc(C)nc(N[C@H](C)c3cccc(C(F)(F)CO)c3)c2cc1O[C@H]1CCOC1` [I-1] the IC50 was 3 nM.
`COc1cc2nc(C)nc(N[C@H](C)c3cccc(C)c3)c2cc1O[C@H]1CCN(C(C)=O)C1` [I-4] showed an IC50 of 30 nM.
With `COc1cc2nc(C)nc(N[C@H](C)c3cccc(C(F)(F)F)c3)c2cc1O[C@H]1CCN(C(C)=O)C1` [I-5] the IC50 was 13 nM.
For `COc1cc2nc(C)nc(N[C@H](C)c3cc(N)cc(C(F)(F)F)c3)c2cc1O[C@H]1CCN(C(C)=O)C1` [I-7], the IC50 was 3 nM.
Work on `CC(=O)N1CC[C@H](Oc2cc3c(N[C@H](C)c4cc(N)cc(C(F)(F)F)c4)nc(C)nc3cc2F)C1` [I-8] yielded an IC50 of 6 nM.
`CC(=O)N1CC[C@H](Oc2cc3c(N[C@H](C)c4cc(N)cc(C(F)(F)F)c4)nc(C)nc3cc2C)C1` [I-9] gave an IC50 of 3 nM.
`Cc1nc(N[C@H](C)c2cc(N)cc(C(F)(F)F)c2)c2cc(O[C@H]3CCOC3)c(C)cc2n1` [I-10] showed an IC50 of 7 nM.
`COc1cc2nc(C)nc(N[C@H](C)c3cccc(C4(O)COC4)c3)c2cc1O[C@H]1CCOC1` [I-16] was tested, and the IC50 was 38 nM.
Compound `COc1cc2nc(C)nc(N[C@H](C)c3cccc(C4(O)COC4)c3)c2cc1C1=CCN(C(C)=O)CC1` [I-17] has an IC50 of 34 nM.
With `COc1c(C2(O)CCN(C(C)=O)CC2)cc2c(N[C@H](C)c3cccc(C(F)(F)F)c3F)nc(C)nc2c1C` [I-20] the IC50 was 7 nM.
For `Cc1nc(N[C@H](C)c2cccc(C(F)(F)F)c2)c2cc(C3(O)CCS(=O)(=O)CC3)ccc2n1` [I-21], the IC50 was 20 nM.
For `CC(=O)N1CC2(C1)CC(O)(c1cc(C)c3nc(C)nc(N[C@H](C)c4cccc(C(F)(F)F)c4)c3c1)C2` [I-42], the IC50 was 26 nM.
`CC(=O)N1CCC(O)(c2cc(C)c3nc(C)nc(N[C@H](C)c4cccc(C(F)(F)F)c4)c3c2)CC1` [I-43] gave an IC50 of 8 nM.
In the case of `COc1cc2nc(C)nc(N[C@H](C)c3cccc(C(F)(F)F)c3)c2cc1C1(O)CCN(C(C)=O)CC1` [I-44], the IC50 is reported as 4 nM.
For `COc1cc2nc(C)nc(N[C@H](C)c3cccc(C(F)(F)F)c3F)c2cc1C1(O)CCN(C(C)=O)CC1` [I-45], the IC50 was 2 nM.
For `COCC(=O)N1CCC(O)(c2cc3c(N[C@H](C)c4cccc(C(F)(F)F)c4F)nc(C)nc3cc2OC)CC1` [I-46], the IC50 was 4 nM.
`COCC(=O)N1CCC(O)(c2cc3c(N[C@H](C)c4cccc(C(F)(F)F)c4)nc(C)nc3cc2OC)CC1` [I-47] was tested, and the IC50 was 5 nM.
For `CC(=O)N1CCC(O)(c2ccc3nc(C)nc(N[C@H](C)c4cccc(C(F)(F)F)c4)c3c2)CC1` [I-48], the IC50 was 15 nM.
Compound `COCC(=O)N1CCC(O)(c2ccc3nc(C)nc(N[C@H](C)c4cccc(C(F)(F)F)c4)c3c2)CC1` [I-49] has an IC50 of 9 nM.
In the case of `Cc1nc(N[C@H](C)c2cccc(C(F)(F)F)c2)c2cc(C3(O)CCN(C(=O)N(C)C)CC3)ccc2n1` [I-50], the IC50 is reported as 23 nM.
In the case of `CC(=O)N1CCC2(CC1)CC(O)(c1ccc3nc(C)nc(N[C@H](C)c4cccc(C(F)(F)F)c4)c3c1)C2` [I-51], the IC50 is reported as 23 nM.
For `CC(=O)N1CCC(O)(c2ccc3nc(C)nc(N[C@H](C)c4cccc(C)c4)c3c2)CC1` [I-52], the IC50 was 14 nM.
Work on `CCC(=O)N1CC[C@H](Oc2cc3c(N[C@H](C)c4cc(N)cc(C(F)(F)F)c4)nc(C)nc3cc2C)C1` [I-53] yielded an IC50 of 3 nM.
For `Cc1nc(N[C@H](C)c2cc(N)cc(C(F)(F)F)c2)c2cc(O[C@H]3CCN(C(=O)C4CC4)C3)c(C)cc2n1` [I-54], the IC50 was 4 nM.
For `Cc1nc(N[C@H](C)c2cc(N)cc(C(F)(F)F)c2)c2cc([C@H]3CC[C@H](O)CC3)ccc2n1` [I-65], the IC50 was 8 nM.
Compound `Cc1nc(N[C@H](C)c2cc(N)cc(C(F)(F)F)c2)c2cc([C@H]3CC[C@@H](O)CC3)ccc2n1` [I-66] has an IC50 of 43 nM.
With `CC(=O)O[C@H]1CC[C@](O)(c2ccc3nc(C)nc(N[C@H](C)c4cccc(C(F)(F)F)c4)c3c2)CC1` [I-67] the IC50 was 26 nM.
`COc1cc2nc(C)nc(N[C@H](C)c3cccc(C(F)(F)F)c3F)c2cc1C1(O)CCC(C(=O)N(C)C)CC1` (stereo partly drawn) [I-77] gave an IC50 of 5 nM.
Compound `Cc1nc(N[C@H](C)c2cccc(C(F)(F)F)c2)c2cc([C@]3(O)CC[C@H](C(=O)N(C)C)CC3)ccc2n1` [I-78] has an IC50 of 27 nM.
In the case of `Cc1nc(N[C@H](C)c2cccc(C(F)(F)F)c2)c2cc(C3CCOCC3)ccc2n1` [I-153], the IC50 is reported as 33 nM.
With `Cc1cccc([C@@H](C)Nc2nc(C)nc3ccc(C4CCOCC4)cc23)c1` [I-154] the IC50 was 43 nM.
Work on `COc1cc2nc(C)nc(N[C@H](C)c3cccc(C(F)(F)CO)c3)c2cc1C1CCOCC1` [I-164] yielded an IC50 of 3 nM.
Compound `COCC(=O)N1CCC(c2cc3c(N[C@H](C)c4cccc(C(F)(F)CO)c4)nc(C)nc3cc2OC)CC1` [I-165] has an IC50 of 2 nM.
`COc1cc2nc(C)nc(N[C@H](C)c3cccc(C(F)(F)CO)c3)c2cc1C1CCN(C(C)=O)CC1` [I-166] gave an IC50 of 2 nM.

Same assay, conditions: read-out: IC50 (SOS1)
`Cc1cccc([C@@H](C)Nc2nc(C)nc3cc(C)c(-c4ccc(C(=O)N5CCOCC5)cc4)cc23)c1` [I-83] showed an IC50 of 44 nM.
`COc1cc2nc(C)nc(N[C@H](C)c3cc(N)cc(C(F)(F)F)c3)c2cc1-c1cnn(CC(=O)N(C)C)c1` [I-84] gave an IC50 of 6 nM.
Work on `Cc1nc(N[C@H](C)c2cc(N)cc(C(F)(F)F)c2)c2cc(-c3cnn(CC(=O)N(C)C)c3)ccc2n1` [I-86] yielded an IC50 of 8 nM.
`Cc1nc(N[C@H](C)c2cc(N)cc(C(F)(F)F)c2)c2cc(-c3cc4n(n3)CCC(=O)N4)ccc2n1` [I-90] showed an IC50 of 7 nM.
For `Cc1nc(N[C@H](C)c2cc(N)cc(C(F)(F)F)c2)c2cc(-c3ccc(=O)[nH]c3)ccc2n1` [I-102], the IC50 was 9 nM.
`COc1cc2nc(C)nc(N[C@H](C)c3cc(N)cc(C(F)(F)F)c3)c2cc1-c1ccc(=O)n(C)c1` [I-108] gave an IC50 of 8 nM.
In the case of `Cc1nc(N[C@H](C)c2cccc(C(F)(F)F)c2)c2cc(-c3ccc(=O)n(C)c3)c(C)cc2n1` [I-109], the IC50 is reported as 25 nM.
For `COc1cc2nc(C)nc(N[C@H](C)c3cc(N)cc(C(F)(F)F)c3F)c2cc1-c1ccc(=O)n(C)c1` [I-110], the IC50 was 8 nM.

Same assay, conditions: read-out: IC50 (SOS1); assay buffer without EDTA (values not marked with an asterisk)
Compound `Cc1nc(N[C@H](C)c2cccc(C(F)(F)F)c2C)c2cc(C3(O)CCC(O)CC3)ccc2n1` (stereo partly drawn) [I-63] has an IC50 of 9 nM.
Compound `COc1cc2nc(C)nc(N[C@H](C)c3cccc(C(F)(F)F)c3)c2cc1C1(O)CCC(C(=O)N(C)C[C@H](C)O)CC1` (stereo partly drawn) [I-73] has an IC50 of 41 nM.

Same assay, conditions: values marked with * in the table; read-out: IC50 (SOS1)
For `Cc1nc(N[C@H](C)c2cccc(C(F)(F)F)c2)c2cc(-c3cnn(CC(=O)N(C)C)c3)ccc2n1` [I-85], the IC50 was 41 nM.
`Cc1cccc([C@@H](C)Nc2nc(C)nc3ccc(-c4cc5n(n4)CCC(=O)N5)cc23)c1` [I-87] showed an IC50 of 18 nM.
With `Cc1nc(N[C@H](C)c2cccc(C(F)(F)F)c2)c2cc(-c3cc4n(n3)CCC(=O)N4)ccc2n1` [I-88] the IC50 was 30 nM.
For `Cc1nc(N[C@H](C)c2cccc(C(F)(F)F)c2)c2cc(-c3cc4n(n3)CCC(=O)N4)c(C)cc2n1` [I-89], the IC50 was 34 nM.
Work on `Cc1cccc([C@@H](C)Nc2nc(C)nc3ccc(-c4ccc(=O)[nH]c4)cc23)c1` [I-99] yielded an IC50 of 29 nM.
Compound `Cc1nc(N[C@H](C)c2cccc(C(F)(F)F)c2)c2cc(-c3ccc(=O)[nH]c3)ccc2n1` [I-100] has an IC50 of 48 nM.
With `COc1cc2nc(C)nc(N[C@H](C)c3cccc(C)c3)c2cc1-c1ccc(=O)[nH]c1` [I-101] the IC50 was 28 nM.
In the case of `Cc1cccc([C@@H](C)Nc2nc(C)nc3ccc(-c4ccc(=O)n(C)c4)cc23)c1` [I-103], the IC50 is reported as 46 nM.
In the case of `Cc1nc(N[C@H](C)c2cc(N)cc(C(F)(F)F)c2)c2cc(-c3ccc(=O)n(C)c3)ccc2n1` [I-104], the IC50 is reported as 6 nM.
Work on `Cc1cccc([C@@H](C)Nc2nc(C)nc3cc(C)c(-c4ccc(=O)n(C)c4)cc23)c1` [I-105] yielded an IC50 of 36 nM.
`Cc1nc(N[C@H](C)c2cc(N)cc(C(F)(F)F)c2)c2cc(-c3ccc(=O)n(C)c3)c(C)cc2n1` [I-107] was tested, and the IC50 was 4 nM.
